From publication PMC13184981, “Discovery and Development of a Potent LIMK2 Isoform-Specific Degrader” (ACS Chemical Biology, 2026)

How the values were obtained:
HEK293T cells = assay: CellTiter-Glo 2.0 cell viability assay; format: cell-based, human; details: 24-h treatment, 25 nM to 20 µM
Procedure: The effects of the PROTAC on cell viability were determined using the CellTiter-Glo 2.0 Cell Viability Assay (Promega, G9241) following the manufacturer’s protocol. […] 40 μL of assay reagent was added and incubated for 10 min at RT. Filtered luminescence was measured using a PHERAstar plate reader (BMG Labtech), and data were analyzed using GraphPad Prism 9.

LIMK2 = LIMK2 (Homo sapiens, UniProt P53671); assay: NanoBRET cellular target engagement, LIMK2; format: cell-based; design: host or cells: HEK293T
Procedure: Gene encoding LIMK1 (Promega, NV3391) and LIMK2 (Promega, NV1531), CRBN (Promega, N2741) proteins cloned in frame with NanoLuc fusion tag at the C-terminus, were transfected into HEK293T cells using FuGENE HD (Promega, E2312) following manufacture’s protocol and proteins were allowed to express for 20 h at 37 °C and 5% CO2. […] The 10 μL of transfected cells after trypsinization and resuspending in Opti-MEM (Life Technologies, 31985070) were dispensed into each well of the 384-well plate (Greiner 781207) at a cell density of 2 × 10^5 cells/mL. For dose–response BRET measurements, compounds at various concentrations, immediately followed by Tracer K10 (Promega, Tracer DB ID: T000008) for LIMK1 and LIMK2, CRBN Tracer (Promega, Tracer DB ID: T000018) for CRBN at an optimum KD concentration chosen from TracerDB (tracerdb.org), were pipetted using an Echo acoustic dispenser (Labcyte). The system was allowed to equilibrate for 2 h at 37 °C and 5% CO2 before BRET measurements. To measure BRET signal, the NanoBRET NanoGlo Substrate (Promega, N1573) was added as per the manufacturer’s protocol, and filtered luminescence was measured on a PHERAstar plate reader (BMG Labtech) equipped with a luminescence filter pair (450 nm BP filter (donor) and 610 nm LP filter (acceptor)). For lysed NanoBRET measurement, 25 nL of Digitonin (0.05 μg/μL) was pipetted to each well using Labcyte, and the plate was incubated for 5 min at 37 °C and 5% CO2. After incubation, the BRET signals were measured by a PHERAstar plate reader following the same procedure as intact NanoBRET measurement. […] The BRET ratios are normalized to both of them in the prism output data file. Competitive displacement data were then normalized to controls and were graphed using GraphPad Prism 9 software employing a normalized 3-parameter curve fit with the following equation: Y = 100/(1 + 10̂(X – logIC50)).

[1] = target: T1, NanoLuc-tagged LIMK2 and Halo-tagged CRBN (Homo sapiens, UniProt P53671+Q96SW2); assay: NanoBRET cellular ternary complex formation, LIMK2; format: cell-based
T1 construct: CRBN vector in-house NV1531; host or cells: HEK293T
Description: Next, we assessed ternary complex formation for the parent and lead PROTACs in live cells using the NanoBRET proximity assay. A ternary complex assay system was established using NanoLuc-tagged LIMKs and Halo-tagged CRBN. Formation of the ternary complex upon PROTAC addition was quantified by measuring the BRET signal. […] However, they differed in the strength of the ternary complex. […] We also confirmed the differences in ternary complex strength using the orthogonal PROXICapture approach, in which MOLT-4 cell lysate was passed over immobilized FLAG-tagged CRBN preincubated with THNAN69.
Gene encoding LIMK1 (Promega, NV3391) and LIMK2 (Promega, NV1531) proteins cloned in frame with NanoLuc fusion tag at the C-Terminus and gene encoding cereblon (generated in-house) cloned in frame with Halo Tag at the N-Terminus, were used to measure the end-point ternary complex formation between the PROTACs and LIMK1 and LIMK2, respectively. […] To measure BRET, NanoBRET NanoGlo Substrate + Extracellular NanoLuc Inhibitor (Promega, N2162) was added to cells as per the manufacturer’s protocol, and filtered luminescence was measured on a PHERAstar FSX plate reader (BMG Labtech) equipped with a luminescence filter pair (450 nm BP filter (donor) and 610 nm LP filter (acceptor)). […]

Chain of LIMK2 (P53671 whole entry): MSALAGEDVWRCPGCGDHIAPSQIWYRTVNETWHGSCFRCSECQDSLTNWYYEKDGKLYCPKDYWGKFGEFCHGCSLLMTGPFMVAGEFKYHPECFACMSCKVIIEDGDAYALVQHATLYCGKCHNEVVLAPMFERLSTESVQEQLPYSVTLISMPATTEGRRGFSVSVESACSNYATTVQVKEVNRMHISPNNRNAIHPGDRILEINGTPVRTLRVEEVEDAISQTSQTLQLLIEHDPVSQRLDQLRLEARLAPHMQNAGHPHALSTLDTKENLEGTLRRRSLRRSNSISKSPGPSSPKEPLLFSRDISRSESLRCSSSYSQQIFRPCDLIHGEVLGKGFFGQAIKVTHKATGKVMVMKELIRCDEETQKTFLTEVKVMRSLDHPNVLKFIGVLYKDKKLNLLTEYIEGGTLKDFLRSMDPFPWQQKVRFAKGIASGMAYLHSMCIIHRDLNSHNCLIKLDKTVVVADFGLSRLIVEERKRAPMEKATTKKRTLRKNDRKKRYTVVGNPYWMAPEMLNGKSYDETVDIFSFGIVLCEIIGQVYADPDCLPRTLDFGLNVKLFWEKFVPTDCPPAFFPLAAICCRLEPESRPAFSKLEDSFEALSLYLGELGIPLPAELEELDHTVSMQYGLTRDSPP
T1 sequence (P53671 whole entry): as above
T1 sequence (Q96SW2 whole entry): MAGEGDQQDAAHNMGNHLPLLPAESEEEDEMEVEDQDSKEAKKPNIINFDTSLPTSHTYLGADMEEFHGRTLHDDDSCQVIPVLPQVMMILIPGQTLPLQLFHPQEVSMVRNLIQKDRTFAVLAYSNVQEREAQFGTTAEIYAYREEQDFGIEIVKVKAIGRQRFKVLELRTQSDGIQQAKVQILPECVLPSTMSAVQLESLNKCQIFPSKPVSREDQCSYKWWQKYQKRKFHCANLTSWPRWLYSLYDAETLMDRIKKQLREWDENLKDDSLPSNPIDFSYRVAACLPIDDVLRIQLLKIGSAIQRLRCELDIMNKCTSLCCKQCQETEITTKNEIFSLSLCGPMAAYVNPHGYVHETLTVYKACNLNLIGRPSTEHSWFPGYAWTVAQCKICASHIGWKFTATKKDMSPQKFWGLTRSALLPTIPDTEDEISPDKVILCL
T1 sequence (Q16531 whole entry partner): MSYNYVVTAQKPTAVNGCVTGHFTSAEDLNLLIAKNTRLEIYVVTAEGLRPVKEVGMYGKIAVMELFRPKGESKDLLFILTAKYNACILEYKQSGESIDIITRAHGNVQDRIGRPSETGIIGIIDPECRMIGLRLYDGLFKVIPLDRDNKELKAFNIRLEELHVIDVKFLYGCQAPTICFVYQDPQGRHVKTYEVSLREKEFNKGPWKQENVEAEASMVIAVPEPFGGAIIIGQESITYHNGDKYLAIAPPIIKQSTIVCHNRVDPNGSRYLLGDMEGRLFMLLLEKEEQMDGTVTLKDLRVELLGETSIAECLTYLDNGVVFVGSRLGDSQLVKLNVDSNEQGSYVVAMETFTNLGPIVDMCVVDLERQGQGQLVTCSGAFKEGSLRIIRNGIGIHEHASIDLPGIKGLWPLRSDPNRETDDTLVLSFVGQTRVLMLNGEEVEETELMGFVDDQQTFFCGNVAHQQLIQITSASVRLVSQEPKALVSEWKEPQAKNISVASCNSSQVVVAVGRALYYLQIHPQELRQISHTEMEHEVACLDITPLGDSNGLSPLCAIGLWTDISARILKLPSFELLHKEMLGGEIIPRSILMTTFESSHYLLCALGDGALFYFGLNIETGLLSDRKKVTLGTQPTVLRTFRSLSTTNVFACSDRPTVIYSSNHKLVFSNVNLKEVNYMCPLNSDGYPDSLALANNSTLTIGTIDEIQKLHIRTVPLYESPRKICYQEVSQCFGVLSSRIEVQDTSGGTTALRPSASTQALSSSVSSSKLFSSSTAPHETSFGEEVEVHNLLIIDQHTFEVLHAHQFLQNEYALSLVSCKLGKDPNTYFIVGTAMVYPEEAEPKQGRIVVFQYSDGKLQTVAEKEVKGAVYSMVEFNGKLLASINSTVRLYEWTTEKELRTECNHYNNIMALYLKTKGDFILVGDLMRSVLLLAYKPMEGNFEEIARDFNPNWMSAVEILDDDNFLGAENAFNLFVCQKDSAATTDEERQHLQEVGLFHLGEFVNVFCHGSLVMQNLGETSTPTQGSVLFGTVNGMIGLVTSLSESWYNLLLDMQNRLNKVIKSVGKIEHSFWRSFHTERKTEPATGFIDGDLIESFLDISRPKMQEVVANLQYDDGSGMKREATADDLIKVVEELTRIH

Cc1c(OCc2cn(CCCCC(=O)Nc3ncc(-c4cc(C(F)F)nn4-c4c(Cl)cccc4Cl)s3)nn2)cccc1N1CCC(=O)NC1=O [22b]
cytotoxic effects (HEK293T cells): no cytotoxic effects | IC50 (LIMK2): 0.08 µM | LIMK2 binary IC50 stronger than LIMK1 (LIMK2; NanoBRET, LIMK2 vs LIMK1): 5 fold | EC50 [1]: 0.077 µM
